Experimental data reported in PMC12339982 (Nature Communications, 2025).
Where a chain is given by its changes, count along the chain named.

How the values were obtained:
TauT^WT and variants [1] = target: T1, TauT^WT and variants (Homo sapiens, UniProt P31641, L134C); experiment: GAA uptake assay; assay type: cell-based; conditions: mutation Leu134Cys
T1 sequence (P31641 1-620 L134C): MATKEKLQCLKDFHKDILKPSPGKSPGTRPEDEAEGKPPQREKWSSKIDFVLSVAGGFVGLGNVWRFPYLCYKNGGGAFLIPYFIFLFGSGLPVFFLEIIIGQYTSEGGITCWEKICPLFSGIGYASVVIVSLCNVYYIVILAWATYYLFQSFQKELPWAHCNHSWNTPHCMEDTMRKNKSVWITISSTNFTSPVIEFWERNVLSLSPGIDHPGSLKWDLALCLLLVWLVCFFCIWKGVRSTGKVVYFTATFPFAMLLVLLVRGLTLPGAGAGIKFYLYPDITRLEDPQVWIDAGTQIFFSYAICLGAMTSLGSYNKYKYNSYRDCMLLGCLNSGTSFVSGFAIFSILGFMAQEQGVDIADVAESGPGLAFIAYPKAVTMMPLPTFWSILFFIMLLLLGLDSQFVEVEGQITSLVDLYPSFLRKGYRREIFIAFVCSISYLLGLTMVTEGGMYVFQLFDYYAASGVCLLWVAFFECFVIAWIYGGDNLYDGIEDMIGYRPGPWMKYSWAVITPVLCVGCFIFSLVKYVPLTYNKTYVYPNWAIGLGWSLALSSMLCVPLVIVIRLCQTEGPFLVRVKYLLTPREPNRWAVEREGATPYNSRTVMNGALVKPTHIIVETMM

TauT^WT and variants [2] = experiment: GAA uptake assay; assay type: cell-based, human; conditions: amino acid substitutions in Gly57, Phe58, Leu306
TauT G62A mutant = target: T2, TauT G62A mutant (Homo sapiens, UniProt P31641, G62A); experiment: MST binding, TauT G62A; conditions: mean ± s.e.m., n=3
T2 sequence (P31641 1-620 G62A): T1 sequence (P31641 1-620 L134C) with G62A, C134L

TauT^WT and variants [3] = experiment: [3H]γ-aminobutyric acid uptake by TauT^WT and variants in HEK293T cells; assay type: cell-based, human; conditions: amino acid substitutions in Gly57, Phe58, Leu306
TauT^EM = target: T3, TauT^EM (Homo sapiens, UniProt P31641, D486N/D490E/E493R/G491D/K319H/L488F/N487R/R499P/S322V/Y320N/Y489S/Y498F); experiment: MST binding, TauT^EM; conditions: compared with TauT^WT
T3 sequence (P31641 1-620 K319H/Y320N/S322V/D486N/N487R/L488F/Y489S/D490E/G491D/E493R/Y498F/R499P): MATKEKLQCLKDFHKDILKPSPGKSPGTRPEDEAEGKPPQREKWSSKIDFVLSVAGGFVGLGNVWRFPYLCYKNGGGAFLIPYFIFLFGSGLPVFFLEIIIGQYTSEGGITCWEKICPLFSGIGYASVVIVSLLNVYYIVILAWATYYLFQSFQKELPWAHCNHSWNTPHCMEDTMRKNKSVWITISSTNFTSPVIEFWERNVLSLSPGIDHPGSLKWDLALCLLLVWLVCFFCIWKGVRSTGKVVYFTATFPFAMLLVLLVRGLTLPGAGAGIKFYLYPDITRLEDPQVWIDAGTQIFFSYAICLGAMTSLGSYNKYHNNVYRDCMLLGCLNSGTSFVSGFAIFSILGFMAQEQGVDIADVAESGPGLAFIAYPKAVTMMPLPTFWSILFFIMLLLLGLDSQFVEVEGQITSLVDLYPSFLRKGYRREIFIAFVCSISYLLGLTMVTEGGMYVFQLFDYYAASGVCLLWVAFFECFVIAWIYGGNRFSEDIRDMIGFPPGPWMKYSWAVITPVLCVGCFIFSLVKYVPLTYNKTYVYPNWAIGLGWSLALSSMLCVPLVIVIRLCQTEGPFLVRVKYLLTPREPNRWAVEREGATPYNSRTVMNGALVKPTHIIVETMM

TauT F58A mutant = target: T4, TauT F58A mutant (Homo sapiens, UniProt P31641, F58A); experiment: MST binding, TauT F58A; conditions: mean ± s.e.m., n=3
T4 sequence (P31641 1-620 F58A): T1 sequence (P31641 1-620 L134C) with F58A, C134L

| SMILES | transport activity of GAA (TauT^WT and variants [1]) | transport activity for GAA (TauT^WT and variants [2]) | Kd (MST) (TauT G62A mutant) | transport activity for GABA (TauT^WT and variants [3]) | binding affinity (Kd, MST) of TauT^EM (TauT^EM) | Kd (MST) (TauT F58A mutant) |
| --- | --- | --- | --- | --- | --- | --- |
| [H]/N=C(/N)NCC(=O)O [GAA, guanidinoacetate] | greater transport activity | decrease in transport activity | drastic loss of GAA binding affinity |  |  |  |
| NCCCC(=O)O [GABA, γ-aminobutyric acid] |  |  | complete loss of the binding | decrease in transport activity |  |  |
| NCCS(=O)(=O)O [Taurine, taurine] |  |  |  |  | analogous to those of TauT^WT | reduced the taurine binding to varying extents |
